Data reported in article PMC3608651, “A Broad Profile of Co-Dominant Epitopes Shapes the Peripheral Mycobacterium tuberculosis Specific CD8+ T-Cell Immune Response in South African Patients with Active Tuberculosis” (PLoS ONE, 2013).

Columns and labels:
Format in all cases: binding
HLA-C*07:01 [1] = molecular target: T1, HLA-C*07:01 (Homo sapiens, UniProt P10321, K90N/S123Y); experiment: affinity assay (ED50)
HLA-A*68:01 [2] = molecular target: T2, HLA-A*68:01 (Homo sapiens, UniProt P04439, A269V/D185E/E176V/E277Q/E87N/F33Y/G231S/I121M/I166T/I218V/L180W/L300P/L318F/N151K/P208A/P217A/Q86R/R169H/T345S); conditions: percent relative the binding of positive control peptide […]; duplicated experiments; positive binder >40%
HLA-C*07:01 [3] = molecular target: T1, HLA-C*07:01; experiment: off-rate assay (t1/2); conditions: time points 0-8 h
HLA-B*58:01 [4] = molecular target: T3, HLA-B*58:01 (Homo sapiens, UniProt P01889, A329T/C349S/D201E/D98Y/E176V/E187L/E204Q/E69T/G107R/I218V/I90N/K202T/L105A/L119I/N104I/N87E/Q89R/Q94S/R106L/R155S/R180L/R86G/S101N/S121R/S35A/S48A/T118I/V127L/V306I/V36M/Y140S/Y91M); conditions: percent relative the binding of positive control peptide […]; duplicated experiments; positive binder >40%
HLA-C*07:01 [5] = molecular target: T1, HLA-C*07:01; conditions: percent relative the binding of positive control peptide […]; duplicated experiments; positive binder >40%
HLA-A*24:02 [6] = molecular target: T4, HLA-A*24:02 (Homo sapiens, UniProt P04439, D101N/D140Y/D185E/E176V/E190D/F33S/G103R/G107R/I119L/I121M/I306V/K335N/L105A/L180Q/L300P/N151K/N90K/Q86E/Q94H/R106L/R138H/R89G/T104I/T345S/V100E/W191G/Y123F); conditions: percent relative the binding of positive control peptide […]; duplicated experiments; positive binder >40%
HLA-B*07:02 = HLA-B*07:02 (Homo sapiens, UniProt P01889); conditions: percent relative the binding of positive control peptide […]; duplicated experiments; positive binder >40%
HLA-A*30:02 [7] = molecular target: T5, HLA-A*30:02 (Homo sapiens, UniProt P04439, D101N/D140H/D185E/E176R/F33S/G80R/H175R/K168Q/Q94H/R138E/R41S/V100E); conditions: percent relative the binding of positive control peptide […]; duplicated experiments; positive binder >40%
HLA-A*30:02 [8] = molecular target: T5, HLA-A*30:02
HLA-A*02:01 [9] = molecular target: T6, HLA-A*02:01 (Homo sapiens, UniProt P04439, D140Y/D185E/D98H/E176V/E277Q/G131W/G231S/I119V/I121R/I166T/I218V/L300P/L318F/N151K/N90K/P208A/P217A/Q86G/Q94H/R138H/R169H/T345S); conditions: percent relative the binding of positive control peptide […]; plate-bound monomer 0.5 µg/ml; duplicated experiments; positive binder >40%
HLA-A*30:01 = HLA-A*30:01 (Homo sapiens, UniProt P04439, D140H/D185E/E176W/F33S/G80R/H175R/K168Q/R138E/R41S); conditions: percent relative the binding of positive control peptide […]; duplicated experiments; positive binder >40%
HLA-A*30:02 [10] = molecular target: T5, HLA-A*30:02; conditions: time points 0-8 h
HLA-B*58:01 [11] = molecular target: T3, HLA-B*58:01
HLA-A*02:01 [12] = molecular target: T6, HLA-A*02:01; conditions: […]; peptide quantity for 50% binding saturation
HLA-A*24:02 [13] = molecular target: T4, HLA-A*24:02
HLA-A*68:01 [14] = molecular target: T2, HLA-A*68:01; conditions: time points 0-8 h
HLA-A*68:01 [15] = molecular target: T2, HLA-A*68:01
HLA-A*02:01 [16] = molecular target: T6, HLA-A*02:01; conditions: time points 0-8 h; time when 50% of peptide has dissociated
HLA-B*58:01 [17] = molecular target: T3, HLA-B*58:01; conditions: time points 0-8 h
HLA-A*24:02 [18] = molecular target: T4, HLA-A*24:02; conditions: time points 0-8 h

| Substance | Aff C*07:01 (ED50) (HLA-C*07:01 [1]) | Bind A*68:01 (HLA-A*68:01 [2]) [%] | O-rate C*07:01 (t1/2) (HLA-C*07:01 [3]) [min] | Bind B*58:01 (HLA-B*58:01 [4]) [%] | Bind C*07:01 (HLA-C*07:01 [5]) [%] | Bind A*24:02 (HLA-A*24:02 [6]) [%] | Bind B*07:02 (HLA-B*07:02) [%] | Bind A*30:02 (HLA-A*30:02 [7]) [%] | Aff A*30:02 (ED50) (HLA-A*30:02 [8]) | Bind A*02:01 (HLA-A*02:01 [9]) [%] | Bind A*30:01 (HLA-A*30:01) [%] | O-rate A*30:02 (t1/2) (HLA-A*30:02 [10]) [min] | Aff B*58:01 (ED50) (HLA-B*58:01 [11]) | Aff A*02:01 (ED50) (HLA-A*02:01 [12]) | Aff A*24:02 (ED50) (HLA-A*24:02 [13]) [nM] | O-rate A*68:01 (t1/2) (HLA-A*68:01 [14]) [min] | Aff A*68:01 (ED50) (HLA-A*68:01 [15]) [E -07 M] | O-rate A*02:01 (t1/2) (HLA-A*02:01 [16]) [min] | O-rate B*58:01 (t1/2) (HLA-B*58:01 [17]) [min] | O-rate A*24:02 (t1/2) (HLA-A*24:02 [18]) [min] |
| --- | --- | --- | --- | --- | --- | --- | --- | --- | --- | --- | --- | --- | --- | --- | --- | --- | --- | --- | --- | --- |
| YNYPAMLGH [Rv0288_6–14] | 7e-06 M | 30 | 18 | 0 | 48 |  |  |  |  |  |  |  |  |  |  |  |  |  |  |  |
| ANNTRLWVY | 5e-09 M | 0 | 42 | 19 | 113 | 32 | 9 | 195 | 2e-08 M | 5 | 19 | 114 |  |  |  |  |  |  |  |  |
| NNSPAVYLL | 2e-07 M | 28 | 36 | 0 | 70 | 49 | 0 | 0 |  | 16 | 0 |  |  |  |  |  |  |  |  |  |
| QT YKWETFL |  | 46 |  | 40 | 15 | 110 | 0 | 41 | 2E -08 M | 60 | 0 | 60 | 2E -08 M | 3E -07 M | 20 | 42 | 2 | 156 | 90 | 120 |
| LAAYHPQQF | 1E -07 M | 37 | 24 | 13 | 84 | 52 | 74 | 66 | 3e-07 M | 39 | 0 | 66 |  |  |  |  |  |  |  |  |
| QIMYNYPTM [Rv0288_3–11m1] |  |  |  | 9 |  | 40 | 5 | 23 |  | 51 | 12 |  |  | 3e-06 M | 2000 |  |  | 42 |  | 30 |
| VRAYHAMSS [Rv0288_66–74] | 1e-06 M | 29 | 12 | 10 | 79 |  |  |  |  |  |  |  |  |  |  |  |  |  |  |  |
| AMEDLVRAY [Rv0288_61–69] | 5e-06 M | 0 | 6 | 14 | 46 |  |  |  |  |  |  |  |  |  |  |  |  |  |  |  |
| IMYNYPTML [Rv0288_4–12m1] |  |  |  | 37 | 5 | 43 | 7 | 15 |  | 88 | 28 |  | 0.0003 M | 4e-07 M | 800 |  |  | 240 |  | 30 |
